One data set addresses T1, IL-23R (Homo sapiens, UniProt Q5VWK5).
T1 construct: host or cells: HEK293
T1 sequence (Q5VWK5 24-629): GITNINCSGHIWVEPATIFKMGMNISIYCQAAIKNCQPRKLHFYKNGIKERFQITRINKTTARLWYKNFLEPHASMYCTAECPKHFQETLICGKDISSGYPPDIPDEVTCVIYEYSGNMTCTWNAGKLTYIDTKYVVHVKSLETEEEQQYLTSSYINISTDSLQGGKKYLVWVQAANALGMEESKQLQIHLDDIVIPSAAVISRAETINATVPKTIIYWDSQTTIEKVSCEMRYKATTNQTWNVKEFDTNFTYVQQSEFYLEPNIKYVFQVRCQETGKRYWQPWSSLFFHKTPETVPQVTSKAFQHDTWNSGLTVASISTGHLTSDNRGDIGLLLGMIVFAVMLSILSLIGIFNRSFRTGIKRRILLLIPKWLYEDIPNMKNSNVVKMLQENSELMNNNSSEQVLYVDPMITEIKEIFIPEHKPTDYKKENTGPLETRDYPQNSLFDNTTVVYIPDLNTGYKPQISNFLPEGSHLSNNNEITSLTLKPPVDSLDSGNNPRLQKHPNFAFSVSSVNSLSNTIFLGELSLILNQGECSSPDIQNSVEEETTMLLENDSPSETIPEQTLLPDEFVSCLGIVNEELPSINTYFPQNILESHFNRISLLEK
Description: IL23R Reporter Assay. Type of data set: cell-based. As to conditions: HEK293 cells containing IL-23R, IL-12RP1 and STAT-inducible firefly luciferase reporter; 10 ng/mL IL-23 (EC90); 5 h at 37° C.; read-out: IL23R Reporter Assay. In general terms: A reporter such as luciferase makes a cellular process visible.

A short description of data set [1]: Exposed Polar Surface Area (EPSA). Type of data set: physicochemical. As to conditions: SFC on Chirex 3014 column; sample 1 mM DMSO stock; read-out: EPSA. The essentials:
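SFC retention on a Chirex 3014 (S)-valine/(R)-1-(α-naphthyl)ethylamine column, 35 °C, CO2 with MeOH (20 mM ammonium formate) gradient 5–60% at 20%/min, 14 MPa outlet. Retention times converted to EPSA (Å^2) via linear calibration with 8 standards; samples from 1 mM DMSO stock, run in duplicate.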

Starred links: 1 amine or outer side, 2 acyl side, 3 side chain; linkers in the order of their positions; H or OH if unused. Positions of bridges follow the written chain, without caps; N, C: chain ends. Non-standard residues stand in square brackets, D forms with d. Residues, ends and D or L forms follow the SMILES beside them. *: point of attachment. Me3N+(CH2)2O(CH2)2O(CH2)2CO = C[N+](C)(C)CCOCCOCCC(=O)*; Abu(4-yl) = O=C([C@H](CC[*:3])N[*:1])[*:2]; Lys(Me3) = C[N+](C)(C)CCCC[C@H](N)C(=O)O; 2Nal = N[C@@H](Cc1ccc2ccccc2c1)C(=O)O; 3Pal = N[C@@H](Cc1cccnc1)C(=O)O; Lys(Me) = CNCCCC[C@H](N)C(=O)O; Pen = CC(C)(S)[C@H](N)C(=O)O; αMeC = C[C@](N)(CS)C(=O)O; Thp = NC1(C(=O)O)CCOCC1; X3 = C[N+](C)(C)CCCCC*; Sar = CNCC(=O)O

As to `CC(=O)N(C)CCCC[C@@H]1NC(=O)[C@H](Cc2c[nH]c3ccccc23)NC(=O)[C@H]([C@@H](C)O)NC(=O)[C@H](CC(=O)N(C)C)NC(=O)[C@@H](NC(=O)CCOCCOCC[N+](C)(C)C)C(C)(C)SSC(C)(C)[C@@H](C(=O)N[C@@H](Cc2ccc(OCCCCC[N+](C)(C)C)cc2)C(=O)N[C@@H](Cc2ccc3ccccc3c2)C(=O)NC2(C(=O)N[C@@H](CCCCN(C)C(C)=O)C(=O)N[C@@H](CC(N)=O)C(=O)N[C@@H](Cc3cccnc3)C(=O)N(C)CC(=O)N(C)C)CCOCC2)NC1=O` [compound 507, cPEG3aCO-Pen(3)-N(N(Me)2)-T-W-K(NMeAc)-Pen(3)-TMAPF-2Nal-THP-K(NMeAc)-N-3Pya-Sar-CONMe2] ({Me3N+(CH2)2O(CH2)2O(CH2)2CO}-[Pen]D(NMe2)TW[Lys(Me)](Ac)[Pen]Y(X3)[2Nal][Thp][Lys(Me)](Ac)N[3Pal][Sar]-NMe2; disulfide 1-6), on IL-23R, the IC50 came out at 3 nM. Besides, the EPSA in data set [1] stood at 164 A^2.
The like results for `CC(=O)N(C)CCCC[C@@H]1NC(=O)[C@H](Cc2ccc3ccccc3c2)NC(=O)[C@H]([C@@H](C)O)NC(=O)[C@H](CC(=O)N(C)C)NC(=O)[C@@H](NC(=O)CCOCCOCC[N+](C)(C)C)C(C)(C)SSC(C)(C)[C@@H](C(=O)N[C@@H](Cc2ccc(OCCCCC[N+](C)(C)C)cc2)C(=O)N[C@@H](Cc2ccc3ccccc3c2)C(=O)NC2(C(=O)N[C@@H](CCCCN(C)C(C)=O)C(=O)N[C@@H](CC(N)=O)C(=O)N[C@@H](Cc3cccnc3)C(=O)N(C)CC(=O)N(C)C)CCOCC2)NC1=O` [compound 509, cPEG3aCO-Pen(3)-N(N(Me)2)-T-2Nal-K(NMeAc)-Pen(3)-TMAPF-2Nal-THP-K(NMeAc)-N-3Pya-Sar-CONMe2] ({Me3N+(CH2)2O(CH2)2O(CH2)2CO}-[Pen]D(NMe2)T[2Nal][Lys(Me)](Ac)[Pen]Y(X3)[2Nal][Thp][Lys(Me)](Ac)N[3Pal][Sar]-NMe2; disulfide 1-6) were, in that order, 32 nM and 161 A^2.
For `CC(=O)N(C)CCCC[C@@H]1NC(=O)[C@H](Cc2ccccc2)NC(=O)[C@H]([C@@H](C)O)NC(=O)[C@H](CC(=O)N(C)C)NC(=O)[C@@H](NC(=O)CCOCCOCC[N+](C)(C)C)C(C)(C)SSC(C)(C)[C@@H](C(=O)N[C@@H](Cc2ccc(OCCCCC[N+](C)(C)C)cc2)C(=O)N[C@@H](Cc2ccc3ccccc3c2)C(=O)NC2(C(=O)N[C@@H](CCCCN(C)C(C)=O)C(=O)N[C@@H](CC(N)=O)C(=O)N[C@@H](Cc3cccnc3)C(=O)N(C)CC(=O)N(C)C)CCOCC2)NC1=O` [compound 510, cPEG3aCO-Pen(3)-N(N(Me)2)-T-F-K(NMeAc)-Pen(3)-TMAPF-2Nal-THP-K(NMeAc)-N-3Pya-Sar-CONMe2] ({Me3N+(CH2)2O(CH2)2O(CH2)2CO}-[Pen]D(NMe2)TF[Lys(Me)](Ac)[Pen]Y(X3)[2Nal][Thp][Lys(Me)](Ac)N[3Pal][Sar]-NMe2; disulfide 1-6) the same measures were more than 1220 nM and 201 A^2.
The like results for `CC(=O)N(C)CCCC[C@@H]1NC(=O)[C@H](CC(C)C)NC(=O)[C@H]([C@@H](C)O)NC(=O)[C@H](CC(=O)N(C)C)NC(=O)[C@@H](NC(=O)CCOCCOCC[N+](C)(C)C)C(C)(C)SSC(C)(C)[C@@H](C(=O)N[C@@H](Cc2ccc(OCCCCC[N+](C)(C)C)cc2)C(=O)N[C@@H](Cc2ccc3ccccc3c2)C(=O)NC2(C(=O)N[C@@H](CCCCN(C)C(C)=O)C(=O)N[C@@H](CC(N)=O)C(=O)N[C@@H](Cc3cccnc3)C(=O)N(C)CC(=O)N(C)C)CCOCC2)NC1=O` [compound 511, cPEG3aCO-Pen(3)-N(N(Me)2)-T-L-K(NMeAc)-Pen(3)-TMAPF-2Nal-THP-K(NMeAc)-N-3Pya-Sar-CONMe2] ({Me3N+(CH2)2O(CH2)2O(CH2)2CO}-[Pen]D(NMe2)TL[Lys(Me)](Ac)[Pen]Y(X3)[2Nal][Thp][Lys(Me)](Ac)N[3Pal][Sar]-NMe2; disulfide 1-6) were, in that order, more than 16600 nM and 198 A^2.
In the case of `CC(=O)N(C)CCCC[C@@H]1NC(=O)[C@H](C)NC(=O)[C@H]([C@@H](C)O)NC(=O)[C@H](CC(=O)N(C)C)NC(=O)[C@@H](NC(=O)CCOCCOCC[N+](C)(C)C)C(C)(C)SSC(C)(C)[C@@H](C(=O)N[C@@H](Cc2ccc(OCCCCC[N+](C)(C)C)cc2)C(=O)N[C@@H](Cc2ccc3ccccc3c2)C(=O)NC2(C(=O)N[C@@H](CCCCN(C)C(C)=O)C(=O)N[C@@H](CC(N)=O)C(=O)N[C@@H](Cc3cccnc3)C(=O)N(C)CC(=O)N(C)C)CCOCC2)NC1=O` [compound 512, cPEG3aCO-Pen(3)-N(N(Me)2)-T-A-K(NMeAc)-Pen(3)-TMAPF-2Nal-THP-K(NMeAc)-N-3Pya-Sar-CONMe2] ({Me3N+(CH2)2O(CH2)2O(CH2)2CO}-[Pen]D(NMe2)TA[Lys(Me)](Ac)[Pen]Y(X3)[2Nal][Thp][Lys(Me)](Ac)N[3Pal][Sar]-NMe2; disulfide 1-6), at IL-23R, the IC50 was more than 7350 nM. The EPSA in data set [1] amounted to 205 A^2.
Regarding `CC(=O)NCCCC[C@@H]1NC(=O)[C@H](Cc2c[nH]c3c(-c4cccc(NC(C)=O)c4)cccc23)NC(=O)[C@H]([C@@H](C)O)NC(=O)[C@H](CC(N)=O)NC(=O)[C@@H](NC(C)=O)C(C)(C)SSC(C)(C)[C@@H](C(=O)N[C@@H](Cc2ccc(OCCNC(=N)N)cc2)C(=O)N[C@@H](Cc2ccc3ccccc3c2)C(=O)NC2(C(=O)N[C@@H](CCCCN(C)C(C)=O)C(=O)N[C@@H](CC(N)=O)C(=O)N[C@@H](Cc3cccnc3)C(=O)N(C)CC(N)=O)CCOCC2)NC1=O` [compound 515, MeCO-Pen(3)-N-T-7(3NAcPh)W-K(Ac)-Pen(3)-AEF(G)-2Nal-THP-K(NMeAc)-N-3Pya-Sar-CONH2], the IC50 at IL-23R amounted to 3.8 nM. Besides, the EPSA in data set [1] was found to be 197 A^2.
For `CC(=O)NCCCC[C@@H]1NC(=O)[C@H](Cc2c[nH]c3ccccc23)NC(=O)[C@H]([C@@H](C)O)NC(=O)[C@H](CC(N)=O)NC(=O)[C@@H](NC(=O)[C@H](CCCNC(=N)N)NC(=O)CCOCCOCC[N+](C)(C)C)CCSC[C@@](C)(C(=O)N[C@@H](Cc2ccc(OCCCCC[N+](C)(C)C)cc2)C(=O)N[C@@H](Cc2ccc3ccccc3c2)C(=O)NC2(C(=O)N[C@@H](CCC(=O)O)C(=O)N[C@@H](CC(N)=O)C(=O)N[C@@H](Cc3cccnc3)C(=O)N(C)CC(N)=O)CCOCC2)NC1=O` [compound 516, cPEG3aCO-r-Abu(1)-N-T-W-K(Ac)-aMeC(1)-TMAPF-2Nal-THP-E-N-3Pya-Sar-CONH2] ({Me3N+(CH2)2O(CH2)2O(CH2)2CO}-R[Abu(4-yl)]NTWK(Ac)[αMeC]Y(X3)[2Nal][Thp]EN[3Pal][Sar]-NH2; thioether 2-7) the same measures were 50 nM and 237 A^2.
For `CC(=O)NCCCC[C@@H]1NC(=O)[C@H](Cc2c[nH]c3ccccc23)NC(=O)[C@H]([C@@H](C)O)NC(=O)[C@H](CC(N)=O)NC(=O)[C@@H](NC(=O)[C@H](CCCC[N+](C)(C)C)NC(C)=O)CCSC[C@@](C)(C(=O)N[C@@H](Cc2ccc(OCCCCC[N+](C)(C)C)cc2)C(=O)N[C@@H](Cc2ccc3ccccc3c2)C(=O)NC2(C(=O)N[C@@H](CCCCNC(C)=O)C(=O)N[C@@H](CC(N)=O)C(=O)N[C@@H](Cc3cccnc3)C(=O)N(C)CC(N)=O)CCOCC2)NC1=O` [compound 517, MeCO-k(Me)3-Abu(1)-N-T-W-K(Ac)-aMeC(1)-TMAPF-2Nal-THP-K(Ac)-N-3Pya-Sar-CONH2] (Ac-[Lys(Me3)][Abu(4-yl)]NTWK(Ac)[αMeC]Y(X3)[2Nal][Thp]K(Ac)N[3Pal][Sar]-NH2; thioether 2-7) the same measures were 51 nM and 241 A^2.
Consider `CC(=O)NCCCC[C@@H]1NC(=O)[C@H](Cc2c[nH]c3ccccc23)NC(=O)[C@H]([C@@H](C)O)NC(=O)[C@H](CC(N)=O)NC(=O)[C@@H](NC(=O)[C@@H](CCCNC(=N)N)NC(=O)CCOCCOCC[N+](C)(C)C)CCSC[C@@](C)(C(=O)N[C@@H](Cc2ccc(OCCCCC[N+](C)(C)C)cc2)C(=O)N[C@@H](Cc2ccc3ccccc3c2)C(=O)NC2(C(=O)N[C@@H](CCCCNC(C)=O)C(=O)N[C@@H](CC(N)=O)C(=O)N[C@@H](Cc3cccnc3)C(=O)N(C)CC(N)=O)CCOCC2)NC1=O` [compound 518, cPEG3aCO-r-Abu(1)-N-T-W-K(Ac)-aMeC(1)-TMAPF-2Nal-THP-K(Ac-N-3Pya-Sar-CONH2] ({Me3N+(CH2)2O(CH2)2O(CH2)2CO}-[dR][Abu(4-yl)]NTWK(Ac)[αMeC]Y(X3)[2Nal][Thp]K(Ac)N[3Pal][Sar]-NH2; thioether 2-7), for which the IC50 on IL-23R came out at 18 nM. The EPSA in data set [1] was 230 A^2.
As for `CC(=O)NCCCC[C@@H]1NC(=O)[C@H](Cc2c[nH]c3c(-c4cccc(NC(C)=O)c4)cccc23)NC(=O)[C@H]([C@@H](C)O)NC(=O)[C@H](CC(N)=O)NC(=O)[C@@H](NC(=O)CCOCCOCC[N+](C)(C)C)C(C)(C)SSC(C)(C)[C@@H](C(=O)N[C@@H](Cc2ccc(OCCNC(=N)N)cc2)C(=O)N[C@@H](Cc2ccc3ccccc3c2)C(=O)NC2(C(=O)N[C@@H](CCCCN(C)C(C)=O)C(=O)N[C@@H](CC(N)=O)C(=O)N[C@@H](Cc3cncc(C)c3)C(=O)N(C)CC(N)=O)CCOCC2)NC1=O` [compound 519, cPEG3aCO-Pen(3)-N-T-7(3NAcPh)W-K(Ac)-Pen(3)-AEF(G)-2Nal-THP-K(NMeAc)-N-3Pya-Sar-CONH2], the IC50 at IL-23R amounted to 1.8 nM. Besides, in data set [1], the EPSA came to 186 A^2.

The values are drawn from patent US20260022143A1, “Cyclic Peptide Inhibitors of IL-23” (JANSSEN PHARMACEUTICA NV, priority 2022, published 2026).
